Among the test systems are ACHN renal; CCRF-CEM leukemia; HCC-2998 colon; HT29 colon; IGROV1 ovarian; KM12 colon; M14 melanoma; MALME-3M melanoma; MCF7 breast; NCI-H522 lung; OVCAR-4 ovarian; PC-3 prostate; SNB-19 CNS; T-47D breast.
What all share (test): growth of human tumour cells (NCI), 48 h

Where “and” joins values, the source holds several entries; their conditions need not be identical. Identical values can stand only once.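 Following 48 hours of exposure in 96-well plates, responses at five concentrations were used to interpolate endpoints linearly. GI50 = concentration required for 50% inhibition of growth. TGI denotes the concentration required for complete inhibition of growth.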

The text below walks through data of PubChem BioAssay (NCI).

In the case of `CCO/C(O)=C(/C(=N)N1CCOCC1)C(=O)NC(C)C`, the TGI in the experiment on ACHN renal, with CCRF-CEM leukemia, in the experiment with HCC-2998 colon, in the experiment with HT29 colon, in the experiment on IGROV1 ovarian and in the experiment with KM12 colon was over 100 µM throughout. The TGI in the experiment with M14 melanoma, in the experiment on MALME-3M melanoma, in the experiment on MCF7 breast, with NCI-H522 lung, in the experiment on OVCAR-4 ovarian and in the experiment on PC-3 prostate was over 100 µM each time. In addition, the TGI in the experiment on SNB-19 CNS and in the experiment with T-47D breast was over 100 µM in each case.

As for `c1ccc2sc(SSSc3nc4ccccc4s3)nc2c1`, the TGI in the experiment with ACHN renal, with CCRF-CEM leukemia, in the experiment with HCC-2998 colon, with HT29 colon, with IGROV1 ovarian and with KM12 colon was over 100 µM throughout. Moreover, the TGI with M14 melanoma, with MALME-3M melanoma, with MCF7 breast, in the experiment on NCI-H522 lung, in the experiment with OVCAR-4 ovarian and with PC-3 prostate was over 100 µM in each case. Further, the TGI with SNB-19 CNS and in the experiment with T-47D breast was over 100 µM throughout.

Turning to `CC(O)CNC(=O)Nc1c(C(F)(F)F)cc(-c2ccccc2)[nH]c1=O` (configuration not stated), the TGI in the experiment with ACHN renal, with CCRF-CEM leukemia, in the experiment on HCC-2998 colon, in the experiment on HT29 colon, in the experiment on IGROV1 ovarian and in the experiment on KM12 colon was over 100 µM in each case. The TGI with M14 melanoma, in the experiment with MALME-3M melanoma, with MCF7 breast, with NCI-H522 lung, in the experiment with OVCAR-4 ovarian and in the experiment on PC-3 prostate was over 100 µM throughout. Moreover, the TGI in the experiment with SNB-19 CNS and with T-47D breast was over 100 µM each time.

Consider `CC(=O)OCC1OC(n2c(C)c(C(C)=O)c(-c3ccco3)c(C#N)c2=S)C(OC(C)=O)C(OC(C)=O)C1OC(C)=O` (configuration not stated), for which the TGI with ACHN renal, in the experiment on CCRF-CEM leukemia, in the experiment on HCC-2998 colon, in the experiment on HT29 colon, in the experiment on IGROV1 ovarian and in the experiment on KM12 colon was over 100 µM each time. Also, the TGI in the experiment with M14 melanoma, in the experiment on MALME-3M melanoma, in the experiment on MCF7 breast, in the experiment on NCI-H522 lung, with OVCAR-4 ovarian and in the experiment on PC-3 prostate was over 100 µM throughout. Besides, the TGI in the experiment on SNB-19 CNS and with T-47D breast was over 100 µM each time. Also, the GI50 was > 100 µM and 43.6 µM in the experiment with IGROV1 ovarian; > 100 µM and 37.8 µM with OVCAR-4 ovarian.

Consider `C[C@@H]1S[C@H](c2c(F)cccc2Cl)n2c1nc1ccccc12`, for which the TGI in the experiment with ACHN renal was over 100 µM; with CCRF-CEM leukemia, 42.6 µM; in the experiment with HCC-2998 colon it was 26.5 µM; in the experiment on HT29 colon, 29.3 µM; with IGROV1 ovarian, 59.5 µM; with KM12 colon, 20.5 µM. For the same molecule, the TGI in the experiment on M14 melanoma is 42 µM; in the experiment with MALME-3M melanoma, 30.6 µM; in the experiment with MCF7 breast it was 81.8 µM; in the experiment on OVCAR-4 ovarian, 37 µM; in the experiment on PC-3 prostate it was 23.7 µM; in the experiment with SNB-19 CNS, 88.9 µM. The TGI with T-47D breast is 79.5 µM.

With `C=C(C)[C@H]1CC[C@@]23O[C@@H]2[C@@H](C[C@@]2(C)CC(=O)[C@H](CC(=O)C1)O2)OC(=O)[C@@]12CC[C@H](C(=C)C)CC(=O)C[C@H]4O[C@](C)(CC4=O)C[C@@H](OC3=O)[C@@H]1O2`, the TGI in the experiment with ACHN renal, in the experiment on CCRF-CEM leukemia, with HCC-2998 colon, in the experiment on HT29 colon, in the experiment on IGROV1 ovarian and in the experiment with KM12 colon was over 100 µM throughout. The TGI with M14 melanoma, in the experiment on MALME-3M melanoma, with MCF7 breast, with NCI-H522 lung, with OVCAR-4 ovarian and in the experiment with PC-3 prostate was over 100 µM each time. In addition, the TGI in the experiment on SNB-19 CNS and in the experiment with T-47D breast was over 100 µM in each case.

For `CCN(CC)CCNc1ccc2ncn3c4ccc(OC)cc4c(=O)c1c23`, the TGI in the experiment on ACHN renal was 19 µM; in the experiment on CCRF-CEM leukemia it was 19 µM; in the experiment with HCC-2998 colon, 13.7 µM; with HT29 colon it was 8.14 µM; with IGROV1 ovarian, 28.1 µM; in the experiment with KM12 colon it was 7.68 µM. Also, the TGI in the experiment on M14 melanoma was 11.7 µM; with MALME-3M melanoma it was 25.1 µM; with MCF7 breast, over 100 µM; in the experiment with NCI-H522 lung it was 21.4 µM; with OVCAR-4 ovarian, 8.89 µM; with PC-3 prostate, 18.8 µM. For the same molecule, the TGI in the experiment on SNB-19 CNS worked out at 21.4 µM; in the experiment with T-47D breast, 40.5 µM.

`CSC1=NN(C(C)=O)C(C(OC(C)=O)C(OC(C)=O)C(OC(C)=O)C(COC(C)=O)OC(C)=O)S1` (configuration not stated): the TGI in the experiment on ACHN renal, in the experiment on CCRF-CEM leukemia, in the experiment on HCC-2998 colon, with HT29 colon, with IGROV1 ovarian and in the experiment on KM12 colon was over 100 µM throughout. Also, the TGI with M14 melanoma, in the experiment with MALME-3M melanoma, in the experiment on MCF7 breast, in the experiment on NCI-H522 lung, in the experiment on OVCAR-4 ovarian and in the experiment with PC-3 prostate was over 100 µM throughout. Further, the TGI in the experiment with SNB-19 CNS and in the experiment with T-47D breast was over 100 µM each time.

Turning to `CN(C)[C@@H]1C(=O)C(C(=O)NCNc2nc3n[nH]nc3c(=O)[nH]2)=C(O)[C@@]2(O)C(=O)C3=C(O)c4c(O)cccc4[C@@](C)(O)[C@H]3C[C@@H]12`, the TGI in the experiment on ACHN renal was over 100 µM; in the experiment with CCRF-CEM leukemia, over 17.7 µM; with HCC-2998 colon, over 100 µM; with HT29 colon it was over 100 µM; in the experiment with IGROV1 ovarian, over 100 µM; with KM12 colon it was over 100 µM. Besides, the TGI is 15.8 µM with M14 melanoma; 13.1 µM in the experiment on MALME-3M melanoma; over 100 µM in the experiment with MCF7 breast; over 80.3 µM in the experiment with NCI-H522 lung; over 58.3 µM in the experiment with OVCAR-4 ovarian; over 100 µM in the experiment on PC-3 prostate. In addition, the TGI in the experiment on SNB-19 CNS and in the experiment with T-47D breast was over 100 µM in each case.
